Measurements reported in patent publication US20080318943A1, “Compounds and Uses Thereof - 848” (ASTRAZENECA AB, priority 2007, published 2008).

Tests used:
[1] = biological target: T1, GABAA receptor α1β2γ2 (Homo sapiens, UniProt P14867+P18507); assay: Two-electrode voltage-clamp potentiation of GABA EC10 current in Xenopus oocytes, GABAA1; type: cell-based; conditions: percentage potentiation of GABA EC10 current divided by that of diazepam
T1 construct: expressed in transfected cells; host or cells: Xenopus laevis oocytes injected with cRNA
T1 sequence (P14867 28-456): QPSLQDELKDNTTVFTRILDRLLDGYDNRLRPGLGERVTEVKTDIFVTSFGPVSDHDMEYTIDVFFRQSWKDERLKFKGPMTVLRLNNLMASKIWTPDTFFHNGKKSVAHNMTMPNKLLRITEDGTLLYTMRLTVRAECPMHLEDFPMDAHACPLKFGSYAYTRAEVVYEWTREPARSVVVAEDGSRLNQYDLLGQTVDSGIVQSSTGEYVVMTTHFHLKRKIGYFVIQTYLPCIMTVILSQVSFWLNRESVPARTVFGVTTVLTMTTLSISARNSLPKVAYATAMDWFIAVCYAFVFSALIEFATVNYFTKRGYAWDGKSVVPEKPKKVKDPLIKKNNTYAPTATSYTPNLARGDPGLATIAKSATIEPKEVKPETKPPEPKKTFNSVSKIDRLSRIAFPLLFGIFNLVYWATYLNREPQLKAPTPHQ
T1 sequence (P47870 25-512 partner limits assumed): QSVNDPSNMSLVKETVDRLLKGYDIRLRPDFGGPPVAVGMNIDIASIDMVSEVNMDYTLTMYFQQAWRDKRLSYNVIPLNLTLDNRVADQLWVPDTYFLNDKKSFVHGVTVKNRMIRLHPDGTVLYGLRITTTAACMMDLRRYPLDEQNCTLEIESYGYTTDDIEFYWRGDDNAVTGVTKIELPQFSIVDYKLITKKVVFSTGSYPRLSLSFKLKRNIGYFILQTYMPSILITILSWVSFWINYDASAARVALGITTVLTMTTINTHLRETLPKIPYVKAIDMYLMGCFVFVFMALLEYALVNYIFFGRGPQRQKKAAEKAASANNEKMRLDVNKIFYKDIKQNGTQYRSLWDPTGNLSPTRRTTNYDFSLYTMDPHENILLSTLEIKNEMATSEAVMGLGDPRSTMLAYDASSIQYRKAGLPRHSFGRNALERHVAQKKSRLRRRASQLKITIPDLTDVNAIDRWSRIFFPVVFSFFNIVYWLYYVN
T1 sequence (P18507 40-475): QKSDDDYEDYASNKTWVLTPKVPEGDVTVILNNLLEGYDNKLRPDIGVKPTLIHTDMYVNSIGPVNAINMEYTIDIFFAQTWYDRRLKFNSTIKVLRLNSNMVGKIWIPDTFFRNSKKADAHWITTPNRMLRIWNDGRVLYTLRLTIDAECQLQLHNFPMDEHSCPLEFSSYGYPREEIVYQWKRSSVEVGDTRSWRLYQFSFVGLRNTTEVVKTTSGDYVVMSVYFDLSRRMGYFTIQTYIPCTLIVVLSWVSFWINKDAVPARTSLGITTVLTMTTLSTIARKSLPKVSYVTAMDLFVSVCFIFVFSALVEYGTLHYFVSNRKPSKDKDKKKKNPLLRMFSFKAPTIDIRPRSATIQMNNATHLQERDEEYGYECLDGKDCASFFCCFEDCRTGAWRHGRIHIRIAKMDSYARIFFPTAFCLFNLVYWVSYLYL
Procedure, shortened: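 Human GABAA receptors expressed in Xenopus oocytes by cRNA injection (α:β:γ molar ratio ~1:1:10 for α1β2γ2, 1:1:1 for α2β3γ2), recorded 2-10 days later by two-electrode voltage clamp at −60 mV in ND-96, pH 7.5. Modulator preapplied 30 s before GABA at per-oocyte EC10. Peak-current percent potentiation over GABA alone, normalised to diazepam.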

[2] = biological target: T2, GABAA receptor α2β3γ2 (Homo sapiens, UniProt P18507+P47869); assay: Two-electrode voltage-clamp potentiation of GABA EC10 current in Xenopus oocytes, GABAA2; type: cell-based; conditions: percentage potentiation of GABA EC10 current divided by that of diazepam
T2 construct: expressed in transfected cells; host or cells: Xenopus laevis oocytes injected with cRNA
T2 sequence (P47869 29-451): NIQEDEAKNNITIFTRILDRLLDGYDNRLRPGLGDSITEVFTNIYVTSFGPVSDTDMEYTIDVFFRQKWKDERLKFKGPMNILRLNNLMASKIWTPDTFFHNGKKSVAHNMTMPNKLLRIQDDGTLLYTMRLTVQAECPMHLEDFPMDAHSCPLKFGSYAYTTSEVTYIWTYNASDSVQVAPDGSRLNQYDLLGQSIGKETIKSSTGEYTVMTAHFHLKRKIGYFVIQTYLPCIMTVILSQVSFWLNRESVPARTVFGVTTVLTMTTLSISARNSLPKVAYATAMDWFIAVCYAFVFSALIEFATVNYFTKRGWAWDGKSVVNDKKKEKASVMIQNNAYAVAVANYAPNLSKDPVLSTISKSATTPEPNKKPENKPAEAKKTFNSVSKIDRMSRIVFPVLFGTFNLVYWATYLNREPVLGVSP
T2 sequence (P28472 26-473 partner): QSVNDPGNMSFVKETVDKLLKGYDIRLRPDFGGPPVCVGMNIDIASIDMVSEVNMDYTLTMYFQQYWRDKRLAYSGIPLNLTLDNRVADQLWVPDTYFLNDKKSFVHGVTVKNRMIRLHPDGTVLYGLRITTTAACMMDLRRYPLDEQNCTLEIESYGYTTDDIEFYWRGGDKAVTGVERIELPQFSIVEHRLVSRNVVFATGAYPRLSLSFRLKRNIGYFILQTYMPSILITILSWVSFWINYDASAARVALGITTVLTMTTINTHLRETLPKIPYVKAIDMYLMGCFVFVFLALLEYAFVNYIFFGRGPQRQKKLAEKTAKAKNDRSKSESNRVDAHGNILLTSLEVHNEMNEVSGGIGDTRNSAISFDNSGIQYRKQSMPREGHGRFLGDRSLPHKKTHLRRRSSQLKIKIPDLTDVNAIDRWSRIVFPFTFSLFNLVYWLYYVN
T2 sequence (P18507 40-475): as the sequence (P18507 40-475) above
Experimental: GABAA receptors were heterologously expressed in Xenopus oocytes by injecting cRNA corresponding to human α1, α2, α3, α5, β2, P3 and γ2 subunits of the GABAA receptor genes. The specific subunit combinations (subtypes) were as follows: α1β2γ2, α2β3γ2, α3β3γ2, and α5β3γ2. The EC10 of GABA is approximated for each cell. Stability of GABA-mediated (EC10) current is established. Modulatory effect of test compound is determined and compared across subtypes. […] Thus, the assay can characterize modulatory effects and determine subtype selectivity of test compounds on major subtypes of GABAA receptors.
Xenopus laevis frogs (Xenopus I, Kalamazoo, Mich.) were anesthetized using 0.15% tricaine. Surgically removed ovarian lobes were teased out in OR2 solution (82 NaCl, 2.5 KCl, 5 HEPES, 1.5 NaH2PO4, 1 MgCl2, 0.1 EDTA, in mM, pH 7.4). The oocytes were defolliculated by incubation in 25 mL OR2 containing 0.2% collagenase 1A (SIGMA) two times for about 60 minutes on a platform shaker and stored in Leibovitz's L-15 medium. Oocytes were injected the following day in 0.5× Leibovitz's L-15 medium containing […] gentamycin, 10 units/ml penicillin, and […] streptomycin.
Capped cRNAs from the linearized vectors containing human α1, β2 and γ2 subunits of the GABAA receptor genes were mixed in ratio of […]. Oocytes were injected with 25-50 nL of mixed RNA with an appx molar ratio for α1, β2, and γ2 as 1:1:10. Oocyte recordings were done 2-10 days after injection. The same methods apply to subtypes derived from α2β3γ2, α3β3γ2, and α5β3γ2, except for 1:1:1 ratio was used for α, β, and γ subunits.
All measurements were done in a medium containing ND-96 (96 NaCl, 2 KCl, 1.8 CaCl2.2H2O, 1 MgCl2.6H2O, 5 HEPES, in mM, pH 7.5). Two-electrode voltage-clamp recording was carried out using OpusXpress amplifier (Axon Instruments, Foster City, Calif.), which allows simultaneous recording from 8 oocytes. Oocytes were impaled with two electrodes of 1-2 MΩ tip resistance when filled with 3M KCl. Recordings were begun when membrane potential became stable at potentials negative to −50-−60 mV. Membrane potential was held at −60 mV. […] The concentration of GABA corresponded to the EC10 value calculated for each oocyte. The modulator pulses started 30 s before the GABA pulse so as to allow preincubation with the modulator. A set of 3 pulses with just GABA without modulator was given prior to the modulator-containing pulses to define the baseline GABA response. Two oocytes per each experiment were dedicated to observe the effect of diazepam on GABA response to ensure the presence of γ2 subunit in the GABAA pentameric complex, which imparts diazepam sensitivity to the complex.
Current amplitude (i) was measured from baseline to peak using Clampfit (Axon Inst., Foster City, Calif.). Potentiation was calculated as percent change from the baseline GABA current flux 100×(imod/icontrol)−1) where imod=current mediated by modulator+GABA and icontrol=current mediated by GABA alone. […] Similarly, a value of −50% potentiation means the presence of modulator caused a 50% decrease in the control current. Various other data shown here were fitted and plotted using GraphPad Prism (GraphPad Software, Inc. San Diego, Calif.). The percentage potentiation was converted to relative potentiation by dividing it with percentage potentiation value obtained from the same assay with diazepam as a control.

[3] = biological target: T3, GABAA2 receptors (α2, β3, γ2 receptor subunits transfected into Sf9 cells) (Homo sapiens, UniProt P18507+P47869); assay: GABAA2 Binding Method ([3H]-Flunitrazepam displacement); conditions: [3H]-Flunitrazepam ~2 nM, α2β3γ2 Sf9 membranes, 1 hr at 4° C.
T3 construct: host or cells: Sf9 cells (membranes)
T3 sequence (P47869 29-451): as the sequence (P47869 29-451) above
T3 sequence (P28472 26-473 partner): as the sequence (P28472 26-473 partner) above
T3 sequence (P18507 40-475): as the sequence (P18507 40-475) above
Procedure, shortened: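 Membranes from Sf9 cells expressing α2β3γ2 GABAA receptors incubated with ~2 nM (final) [3H]-flunitrazepam and test compound 1 h at 4 °C, then filtered on GF/B plates with cold-buffer washes. Flumazenil-defined controls; percent of control, IC50 and Ki calculated.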

Row | Structure (SMILES) | Relative Potentiation for GABAA1 [1] | Relative Potentiation for GABAA2 [2] | Ki [3]
1 | COc1ccc(-c2cccc3c(N)c4c(nc23)CN(C)C4=O)c(OC)n1 [9-Amino-5-(2,6-dimethoxypyridin-3-yl)-2-methyl-2,3-dihydropyrrolo[3,4-b]quinolin-1-one] |  | 0.19 | 0.29 µM
2 | CCCN1Cc2nc3c(-c4ccc(OC)c(OC)c4)cccc3c(N)c2C1=O [9-amino-5-(3,4-dimethoxyphenyl)-2-propyl-2,3-dihydro-1H-pyrrolo[3,4-b]quinolin-1-one] | 1.1 |  | 0.0123 µM
3 | COc1cccc(CN2Cc3nc4c(-c5cc(OC)ccc5OC)cccc4c(N)c3C2=O)c1 [9-amino-5-(2,5-dimethoxyphenyl)-2-(3-methoxybenzyl)-2,3-dihydro-1H-pyrrolo[3,4-b]quinolin-1-one] | 0.25 |  | 0.0269 µM
4 | Nc1c2c(nc3c(-c4cc(Cl)ccc4Cl)cccc13)CN(C1CCC1)C2=O [9-amino-2-cyclobutyl-5-(2,5-dichlorophenyl)-2,3-dihydro-1H-pyrrolo[3,4-b]quinolin-1-one] | 0.16 |  | 0.00315 µM
5 | CCCN1Cc2nc3c(-c4ccc5ncccc5c4)cccc3c(N)c2C1=O [9-amino-2-propyl-5-(quinolin-6-yl)-2,3-dihydro-1H-pyrrolo[3,4-b]quinolin-1-one] | 0.29 |  | 0.0195 µM
6 | COc1ccc(CN2Cc3nc4c(-c5cc(C)ccc5OC)cccc4c(N)c3C2=O)cc1OC [9-amino-2-(3,4-dimethoxybenzyl)-5-(2-methoxy-5-methylphenyl)-2,3-dihydro-1H-pyrrolo[3,4-b]quinolin-1-one] | 0.3 |  | 0.00918 µM
7 | CCCN1Cc2nc3c(-c4ccc(C)nc4OC)cccc3c(N)c2C1=O [9-amino-5-(2-methoxy-6-methylpyridin-3-yl)-2-propyl-2,3-dihydro-1H-pyrrolo[3,4-b]quinolin-1-one] | 1.1 |  | 0.024 µM
8 | CCCN1Cc2nc3c(-c4cc(C(F)(F)F)ccc4F)cccc3c(N)c2C1=O [9-amino-5-(2-fluoro-5-(trifluoromethyl)phenyl)-2-propyl-2,3-dihydro-1H-pyrrolo[3,4-b]quinolin-1-one] | 0.55 |  | 0.024 µM
9 | CCCN1Cc2nc3c(-c4cnc(OC)nc4OC)c(F)ccc3c(N)c2C1=O [9-amino-5-(2,4-dimethoxypyrimidin-5-yl)-6-fluoro-2-propyl-2,3-dihydro-1H-pyrrolo[3,4-b]quinolin-1-one] | 0.22 |  | 0.00889 µM
10 | COc1ccc(CN2Cc3nc4c(-c5ccc(OC)c(OC)c5)cccc4c(N)c3C2=O)cc1 | 0.61 |  | 0.0477 µM
11 | COc1ncccc1-c1cccc2c(N)c3c(nc12)CN(Cc1ccc2c(c1)OCO2)C3=O [9-amino-2-(benzo[d][1,3]dioxol-5-ylmethyl)-5-(2-methoxypyridin-3-yl)-2,3-dihydro-1H-pyrrolo[3,4-b]quinolin-1-one] | 0.24 |  | 0.00578 µM
12 | CCCN1Cc2nc3c(-c4cc(C)ccc4F)cccc3c(N)c2C1=O [9-amino-5-(2-fluoro-5-methylphenyl)-2-propyl-2,3-dihydro-1H-pyrrolo[3,4-b]quinolin-1-one] | 0.27 |  | 0.00677 µM
13 | CCN1Cc2nc3c(-c4cc(C)ccc4OC)cccc3c(N)c2C1=O [9-amino-2-ethyl-5-(2-methoxy-5-methylphenyl)-2,3-dihydro-1H-pyrrolo[3,4-b]quinolin-1-one] | 0.2 |  | 0.0256 µM
14 | COc1ccc(CN2Cc3nc4c(-c5cc(F)cc(F)c5)cccc4c(N)c3C2=O)cc1OC [9-amino-5-(3,5-difluorophenyl)-2-(3,4-dimethoxybenzyl)-2,3-dihydro-1H-pyrrolo[3,4-b]quinolin-1-one] | 0.24 |  | 0.0153 µM
15 | CCCN1Cc2nc3c(-c4c(F)cc(OC)cc4F)cccc3c(N)c2C1=O [9-amino-5-(2,6-difluoro-4-methoxyphenyl)-2-propyl-2,3-dihydro-1H-pyrrolo[3,4-b]quinolin-1-one] | 0.16 |  | 0.0122 µM
16 | Cc1ccc(-c2cccc3c(N)c4c(nc23)CN(C2CC2)C4=O)c(Cl)n1 [9-amino-5-(2-chloro-6-methylpyridin-3-yl)-2-cyclopropyl-2,3-dihydro-1H-pyrrolo[3,4-b]quinolin-1-one] | 0.4 |  | 0.00787 µM

Other lines, results leading:

Row | Relative Potentiation for GABAA1 [1] | Relative Potentiation for GABAA2 [2] | Ki [3] | Structure (SMILES)
17 | −0.078 | 0.15 |  | COc1cccc(C#N)c1-c1cccc2c(N)c3c(nc12)CN(C1CC1)C3=O [Example 139, 2-(9-Amino-2-cyclopropyl-1-oxo-2,3-dihydro-1H-pyrrolo[3,4-b]quinolin-5-yl)-3-methoxybenzonitrile]
18 |  | 0.27 | 0.0465 µM | CCCN1Cc2nc3c(-c4cccnc4)cccc3c(N)c2C1=O [Example 40, 9-Amino-2-propyl-5-pyridin-3-yl-2,3-dihydropyrrolo[3,4-b]quinolin-1-one]
19 |  | 0.18 | 0.0501 µM | CCN1Cc2nc3c(-c4ccc(OC)nc4OC)cccc3c(N)c2C1=O [Example 27, 9-Amino-5-(2,6-dimethoxypyridin-3-yl)-2-ethyl-2,3-dihydropyrrolo[3,4-b]quinolin-1-one]
20 |  | 0.37 | 0.045 µM | CCCCN1Cc2nc3c(-c4ccc(OC)nc4OC)cccc3c(N)c2C1=O [Example 43, 9-Amino-2-butyl-5-(2,6-dimethoxypyridin-3-yl)-2,3-dihydropyrrolo[3,4-b]quinolin-1-one]
21 | 0.13 |  | 0.0382 µM | CCCN1Cc2nc3c(-c4ccoc4)cccc3c(N)c2C1=O [9-amino-5-(furan-3-yl)-2-propyl-2,3-dihydro-1H-pyrrolo[3,4-b]quinolin-1-one]
22 | 0.49 |  | 0.0215 µM | CCCN1Cc2nc3c(-c4cc(Cl)cnc4OC)cccc3c(N)c2C1=O [9-amino-5-(5-chloro-2-methoxypyridin-3-yl)-2-propyl-2,3-dihydro-1H-pyrrolo[3,4-b]quinolin-1-one]
23 | 0.16 |  | 0.028 µM | Cc1nc(Cl)ccc1-c1cccc2c(N)c3c(nc12)CN(C1CC1)C3=O [9-amino-5-(6-chloro-2-methylpyridin-3-yl)-2-cyclopropyl-2,3-dihydro-1H-pyrrolo[3,4-b]quinolin-1-one]
24 | 0.6 |  | 0.0467 µM | CCCN1Cc2nc3c(-c4cc(OC)cc(OC)c4)cccc3c(N)c2C1=O [9-amino-5-(3,5-dimethoxyphenyl)-2-propyl-2,3-dihydro-1H-pyrrolo[3,4-b]quinolin-1-one]
25 | 0.53 |  | 0.0106 µM | CCCN1Cc2nc3c(-c4cc(Br)cnc4OC)cccc3c(N)c2C1=O [9-amino-5-(5-bromo-2-methoxypyridin-3-yl)-2-propyl-2,3-dihydro-1H-pyrrolo[3,4-b]quinolin-1-one]
